Compound	melting point [°C]
COCCCOc1cccc(CN(C)c2nc(=O)c3c(C)c(OC)c(OC)cc3[nH]2)c1 [Example 162, 6,7-Dimethoxy-2-{[3-(3-methoxy-propoxy)-benzyl]-methyl-amino}-5-methyl-1H-quinazolin-4-one]	150.1 to 152
COc1cc2[nH]c(N(C)Cc3cccc(OCCN(C)C)c3)nc(=O)c2c(C)c1OC [Example 164, 2-{[3-(2-Dimethylamino-ethoxy)-benzyl]-methyl-amino}-6,7-dimethoxy-5-methyl-1H-quinazolin-4-one]	137.9 to 141.9
CCNCCOc1cccc(CN(C)c2nc(=O)c3c(C)c(OC)c(OC)cc3[nH]2)c1 [Example 165, 2-{[3-(2-Ethylamino-ethoxy)-benzyl]-methyl-amino}-6,7-dimethoxy-5-methyl-1H-quinazolin-4-one]	264.6 to 266.5
COc1cc2[nH]c(N(C)Cc3cccc(/N=C(\C)N(C)C)c3)nc(=O)c2c(C)c1OC [Example 167, N′-(3-{[(6,7-Dimethoxy-5-methyl-4-oxo-1,4-dihydro-quinazolin-2-yl)-methyl-amino]-methyl}-phenyl)-N,N-dimethyl-acetamide]	174.4 to 174.8
COc1cc2[nH]c(N(C)Cc3cccc(NS(=O)(=O)N(C)C)c3)nc(=O)c2c(C)c1OC [Example 169, N′-(3-{[(6,7-dimethoxy-5-methyl-4-oxo-1,4-dihydro-quinazolin-2-yl)-methyl-amino]-methyl}-phenyl)-N,N-dimethylsulfamide]	195.3 to 199
COc1cc2[nH]c(N(C)Cc3cccc(N(C)S(=O)(=O)N(C)C)c3)nc(=O)c2c(C)c1OC [Example 170, N-(3-{[(6,7-dimethoxy-5-methyl-4-oxo-1,4-dihydro-quinazolin-2-yl)-methyl-amino]-methyl}-phenyl)-N,N′,N′-trimethylsulfamide]	160 to 161.7
COc1cc2[nH]c(N(C)Cc3cccc(NS(=O)(=O)N(C)C)c3)nc(=O)c2c(OC)c1OC [Example 171, N,N-Dimethyl-N′-(3-{[methyl-(5,6,7-trimethoxy-4-oxo-1,4-dihydro-quinazolin-2-yl)-amino]-methyl}-phenyl)-sulfamide]	176.5 to 179.7
COc1cc2[nH]c(N(C)Cc3cccc(N(C)S(=O)(=O)N(C)C)c3)nc(=O)c2c(OC)c1OC [Example 172, N,N,N′-Trimethyl-N′-(3-{[methyl-(5,6,7-trimethoxy-4-oxo-1,4-dihydro-quinazolin-2-yl)-amino]-methyl}-phenyl)-sulfamide]	170.3 to 172.3
COC(=O)Nc1cccc(CN(C)c2nc(=O)c3c(OC)c(OC)c(OC)cc3[nH]2)c1 [Example 177, (3-{[Methyl-(5,6,7-trimethoxy-4-oxo-1,4-dihydro-quinazolin-2-yl)-amino]-methyl}-phenyl)-carbamic acid methylester]	230.9 to 232.1
COC(=O)N(C)c1cccc(CN(C)c2nc(=O)c3c(C)c(OC)c(OC)cc3[nH]2)c1 [Example 178, (3-{[(6,7-Dimethoxy-5-methyl-4-oxo-1,4-dihydro-quinazolin-2-yl)-methyl-amino]-methyl}-phenyl)-methyl-carbamic acid methyl ester]	191.9 to 194.1
COc1cc2[nH]c(N(C)Cc3cccc(NC(=O)N(C)C)c3)nc(=O)c2c(C)c1OC [Example 180, 3-(3-{[(6,7-Dimethoxy-5-methyl-4-oxo-1,4-dihydro-quinazolin-2-yl)-methyl-amino]-methyl}-phenyl)-1,1-dimethyl-urea]	131.5 to 168
CONC(=O)Nc1cccc(CN(C)c2nc(=O)c3c(OC)c(OC)c(OC)cc3[nH]2)c1 [Example 181, N-Methoxy-N′-(3-{[methyl-(5,6,7-trimethoxy-4-oxo-1,4-dihydro-quinazolin-2-yl)-amino]-methyl-}-phenyl)-urea]	165 to 167
COc1cc2[nH]c(N(C)Cc3cccc(NCCO)c3)nc(=O)c2c(OC)c1OC [Example 182, 2-{[3-(2-Hydroxy-ethylamino)-benzyl]-methyl-amino}-5,6,7-trimethoxy-1H-quinazolin-4-one]	60.5 to 61.5
COc1cc2[nH]c(N(C)Cc3cccc(N(CCO)CCO)c3)nc(=O)c2c(OC)c1OC [Example 190, 2-({3-[Bis(2-hydroxy-ethyl)-amino]-bewnzyl}-methyl-amino)-5,6,7-trimethoxy-1H-quinazolin-4-one]	138.1 to 141
COc1cc2[nH]c(N(C)C(C)c3cccc(NCCNC(C)=O)c3)nc(=O)c2c(C)c1OC (stereo not shown) [Example 191, N-[2-(3-{1-[(6,7-Dimethoxy-5-methyl-4-oxo-1,4-dihydro-quinazolin-2-yl)-methyl-amino]-ethyl}-phenylamino)-ethyl]-acetamide]	220.6 to 222.4
C/N=C(/C)N(C)c1cccc(CN(C)c2nc(=O)c3c(C)c(OC)c(OC)cc3[nH]2)c1 [Example 194]	181.2 to 186.6
CN/C(C)=N/c1cccc(CN(C)c2nc(=O)c3c(C)c(OC)c(OC)cc3[nH]2)c1 [Example 195, N-(3-{[(6,7-Dimethoxy-5-methyl-4-oxo-1,4-dihydro-quinazolin-2-yl)-methyl-amino]-methyl}-phenyl)-N′-methyl-acetamide]	233.1 to 233.9

Compound	melting point [°C]
COc1cc2[nH]c(N(C)Cc3cccc(/N=C/N(C)C)c3)nc(=O)c2c(C)c1OC [Example 196]	185 to 186
COc1cc2[nH]c(N(C)Cc3cccc(/N=C(/C)N(C)C)c3)nc(=O)c2c(OC)c1OC [Example 197, N,N-Dimethyl-N′-(3-{[methyl-(5,6,7-trimethoxy-4-oxo-1,4-dihydro-quinazolin-2-yl)-amino]-methyl}-phenyl)acetamidine]	199 to 201
COc1cc2[nH]c(N(C)Cc3cccc(/N=C(\C(C)C)N(C)C)c3)nc(=O)c2c(OC)c1OC [Example 198, N,N-Dimethyl-N′-(3-{[methyl-(5,6,7-trimethoxy-4-oxo-1,4-dihydro-quinazolin-2-yl)-amino]-methyl}-phenyl)-isobutyramidine]	148 to 150
CCc1c(OC)c(OC)cc2[nH]c(N(C)Cc3cccc(/N=C(\C)N(C)C)c3)nc(=O)c12 [Example 199, N′-(3-{[(5-Ethyl-6,7-dimethoxy-4-oxo-1,4-dihydro-quinazolin-2-yl)-methyl-amino]-methyl}-phenyl)-N,N-dimethyl-acetamidine]	224.6 to 225.5
COc1cc2[nH]c(N(C)Cc3cccc(/N=C(\C4CCC4)N(C)C)c3)nc(=O)c2c(OC)c1OC [Example 203, N,N-Dimethyl-N′-(3-{[methyl-(5,6,7-trimethoxy-4-oxo-11,4-dihydro-quinazolin-2-yl)-amino]-methyl}-phenyl)-cyclobutanecarboxamidine]	164.2 to 165.7
COc1cc2[nH]c(N(C)Cc3cccc(/N=C4/CCCN4C)c3)nc(=O)c2c(OC)c1OC [Example 205, 5,6,7-Trimethoxy-2-(methyl-{3-[1-methyl-pyrrolidin-(2Z)-ylideneamino]-benzyl}-amino)-1H-quinazolin-4-one]	130 to 133
COc1cc2[nH]c(N(C)Cc3cc(N(C)C4=NCCC4)ccc3F)nc(=O)c2c(O)c1OC [Example 211, 2-({-[(4,5-Dihydro-3H-pyrrol-2-yl)-methyl-amino]-2-fluoro-benzyl}-methylamino)-5-hydroxy-6,7-dimethoxy-1H-quinazolin-4-one]	264.9 to 267
COc1cc2[nH]c(N(C)Cc3cccc(Nc4ncccn4)c3)nc(=O)c2c(OC)c1OC [Example 213, 5,6,7-Trimethoxy-2-{methyl-[3-(pyrimidin-2-ylamino)-benzyl]-amino}-1H-quinaozlin-4-one]	190.3 to 191.1
COc1cc2[nH]c(N(C)Cc3cccc(Nc4ccnc(Cl)n4)c3)nc(=O)c2c(OC)c1OC [Example 214, 2-{[3-(2-Chloro-pyrimidin-4-ylamino)-benzyl]-methyl-amino}-5,6,7-trimethoxy-1H-quinazolin-4-one]	205.9 to 210.1
COc1cc2[nH]c(N(C)Cc3cccc(Nc4nccc(Cl)n4)c3)nc(=O)c2c(OC)c1OC [Example 215, 2-{[3-(4-Chloro-pyrimidin-2-ylamino)-benzyl]-methyl-amino}-5,6,7-trimethoxy-1H-quinazolin-4-one]	128.9 to 133.4
COc1cc2[nH]c(N(C)Cc3cccc(Nc4nc(Cl)ncc4C)c3)nc(=O)c2c(OC)c1OC [Example 217, 2-{[3-(2-Chloro-5-methyl-pyrimidin-4-ylamino)-benzyl]-methyl-amino}-5,6,7-trimethoxy-1H-quinazolin-4-one]	225.9 to 227
COc1cc2[nH]c(N(C)Cc3cccc(Nc4cc(C)nc(Cl)n4)c3)nc(=O)c2c(OC)c1OC [Example 218, 2-{[3-(2-Chloro-6-methyl-pyrimidin-4-ylamino)-benzyl]-methyl-amino}-5,6,7-trimethoxy-1H-quinazolin-4-one]	185.5 to 187.1
COc1cc2[nH]c(N(C)Cc3cccc(Nc4nc(C)cc(Cl)n4)c3)nc(=O)c2c(OC)c1OC [Example 219, 2-{[3-(4-Chloro-6-methyl-pyrimidin-2-ylamino)-benzyl]-methyl-amino}-5,6,7-trimethoxy-1H-quinazolin-4-one]	191.3 to 192.8
COc1cc2[nH]c(N(C)Cc3cccc(NCc4ncc[nH]4)c3)nc(=O)c2c(OC)c1OC [Example 220, 2-({3-[(1H-Imidazol-2-ylmethyl)-amino]-benzyl}-methylamino)-5,6,7-trimethoxy-1H-quinazolin-4-one]	125 to 131
COc1cc2[nH]c(N(C)Cc3cccc(/N=C(\C)N(C)C)c3)nc(=O)c2c(F)c1OC [Example 221, N′-(3-{[(5-Fluoro-6,7-dimethoxy-4-oxo-1,4-dihydro-quinazolin-2-yl)-methyl-amino]-methyl}-phenyl)-N,N-dimethyl-acetamidine]	199.9 to 201.9
COc1cc2[nH]c(N(C)Cc3cccc(-n4cnc(C)c4)c3)nc(=O)c2c(C)c1OC [Example 230, 6,7-Dimethoxyt-5-methyl-2-{methyl-[3-(4-methyl-imidazol-1-yl)-benzyl]-amino}-1H-quinazolin-4-one]	245 to 249.5
COc1cc2[nH]c(N(C)Cc3cccc(-n4cccn4)c3)nc(=O)c2c(C)c1OC [Example 232, 6,7-Dimethoxy-5-methyl-2-[methyl-(3-pyrazol-1-yl-benzyl)-amino]-1H-quinazolin-4-one]	220.8 to 224.1

Source: patent US7244738B2, “Arylamine-substituted quinazolinone compounds useful as alpha 1A/B adrenergic receptor antagonists” (Roche Palo Alto LLC, priority 2003, dated 2007)
